Test results as given in patent US10918687B2, “Kava derived therapeutic compounds and methods of use thereof” (KUALITY HERBCEUTICS LLC, priority 2013, dated 2021).
“And” between values parts separate entries of the source, which are not always exact repeats. Identical values can stand only once.

Columns and labels:
[1] = system: NNK-induced DNA adducts in lung tissues; experiment: NNK-induced DNA adducts in A/J mouse lung tissues (LC-ESI-MS/MS); format: in vivo, A/J mice; settings: 24 h after NNK; for minimum chemopreventive (effective) dose estimated from DNA adduct reduction: dose-response of O^6-mG reduction in lung
Excerpt: DNA was isolated from the whole lung tissue of each individual mouse following Puregene DNA isolation protocol (Qiagen Corp, Valencia, Calif.) (Urban et al., Chem Res Toxicol 2012; 25:2167-78). 7-pobG, O^2-pobdT, O^6-pobdG, and O^6-mG were quantified by LC-ESI-MS/MS, following established protocols (Urban et al., Chem Res Toxicol 2012; 25:2167-78; Peterson et al., Cancer Res 1991; 51:5557-64).
After one-week acclimation, A/J mice were weighed and randomized into seven groups (3 mice per group) and switched to the AIN-93 G diet on a date defined as Day 1. Mice in Groups 1 and 2 were given the AIN-93 G diet during Day 1-Day 7. Mice in Groups 3-7 were given the AIN-93 G diet supplemented with desmethoxyyangonin, (+)-DHK, (+)-kavain, (+)-DHM, or (+)-methysticin respectively, at a dose of 1 mg/g of diet during Day 1-Day 7. Mice in Groups 2-7 were given a single dose of NNK at 100 mg/kg bodyweight in saline (0.1 ml) via intraperitoneal (i.p.) injection at the beginning of Day 7 while mice in Group 1 were given saline (0.1 ml). Mice were euthanized by CO2 overdosing 24 h after NNK treatment, and lung tissues were collected and stored at −80° C. until DNA isolation. A number of NNK-induced DNA modifications (O^6-mG, 7-pobG, O^6-pobdG and O^2-pobdT) were quantified by following a reported procedure (Leitzman, P et al. (2014) Cancer. Prev. Res., 7: 86-96).
After one-week acclimation, A/J mice were weighed and randomized into ten groups (3 mice per group except for Group 1 that had one mouse as the negative control) and switched to the AIN-93 G diet on a date defined as Day 1. Mice in Groups 1 and 2 were given the AIN-93 G diet during Day 1-Day 7. Mice in Groups 3-10 were given the AIN-93 G diets supplemented with kava, (+)-DHK, (+)-DHM, and synthetic (±)-DHM respectively at the specified dose during Day 1-Day 7. Mice in Groups 2-10 were given a single dose of NNK at 100 mg/kg bodyweight in saline (0.1 ml) via i.p. injection at the beginning of Day 7 while the mouse in Group 1 was given saline (0.1 ml). Mice were euthanized by CO2 overdosing 24 h after NNK treatment, and lung and liver tissues were collected and stored at −80° C. until DNA isolation. A set of NNK-induced DNA adducts (O^6-mG, 7-mG, 7-pobG, O^6-pobdG, O^2-pobdT, 7-phbG, O^6-phbdG and O^2-phbdT) were quantified by following reported procedures (Leitzman, P et al. (2014) Cancer. Prev. Res., 7: 86-96; Peterson, L A et al. (2013) Chem. Res. Toxicol. 26: 1464-1473; Upadhyaya, P et al. (2008) Chem. Res. Toxicol. 21: 1468-1476). For 7-mG isolation, DNA (30 μg) was dissolved in 10 mM sodium phosphate buffer, pH 7 (500 μL) and spiked with [^13C1^2H3]7-mG (10 pmol). Samples were heated to 80° C. for 30 minutes. An aliquot (100 μL) was removed for 7-mG analysis.

[2] = system: NNK-induced lung tumorigenesis; experiment: NNK-induced lung adenoma formation in A/J mice; format: in vivo; settings: for reduction of adenoma multiplicity / reduction of adenoma incidence / adenoma multiplicity: Example 4, Day 119; for adenoma multiplicity: NNK control 13.9±6.9; for minimum effective dose: dietary dose against NNK-induced lung adenoma formation
Method: Female A/J mice, 5-6 weeks of age from the Jackson Laboratory (Bar Harbor, Me.), were handled according to animal welfare protocols approved by IACUC at the University of Minnesota. […] After one-week acclimation, mice were weighed, randomized into different groups and switched to AIN-93G-powdered diet, defined as Day 1. The number of mice in each group was specified in the Result Section. On Day 7 and Day 14, mice in the negative control groups received 0.1 mL physiological saline solution while mice in the other groups received NNK (100 and 67 mg/kg respectively in 0.1 mL of physiological saline solution) via i.p. injection. At the end of Day 21, mice were switched to AIN-93M-powdered diet until the end of the study. Diet consumption was measured twice weekly and bodyweight was monitored weekly. All mice were euthanized with an overdose of carbon dioxide. The lungs were collected and tumors on the surface of the lung were counted.
Data on lung adenoma multiplicity were reported as mean±SD (n=5-40). […] For Experiment 2, unpaired t-test was used for comparison between NNK control and kava treatment groups. Two-sided p-value≤0.05 was considered statistically significant. Data on DNA adducts were reported as mean±SD (n=3). For the time-course study, unpaired […] was used for comparisons between NNK control and kava treatment groups. Two-sided p-value≤0.05 was considered statistically significant: *p<0.05, **p<0.01, and ***p<0.001. For the 24-h time point study, one-way ANOVA was used to compare means.
After one-week acclimation, mice were weighed, randomized into eight groups and switched to the AIN-93 G diet on a date defined as Day 1. The number of mice in each group is specified in the Results Section (FIG. 36). Mice were fed diets supplemented with different compounds at the dose specified in the Results Section during Day 1-Day 14. On Day 7 and Day 14, mice in the negative control group received 0.1 mL of saline solution while mice in the other groups received NNK (100 and 67 mg/kg, respectively, in 0.1 mL of saline solution) via i.p. injection. At the end of Day 21, mice were switched to the AIN-93 M diet until the end of the study. The diet was replenished twice weekly. The diet consumption was measured twice weekly and the bodyweight was monitored weekly. This study was terminated at the end of Day 119. All mice were euthanized with CO2 overdosing.

[3] = 1, 0.25, 0.1 and 0.01 mg/g of diet
[4] = kava 5 and 1.25 mg/g, (+)-DHM 1, 0.25, 0.1 and 0.01 mg/g of diet

SMILES | effect on O^6-mG ([1]; 0.01 mg/g of diet) | extent of reduction in O^6-mG ([1]; 0.1 mg/g of diet) | effect on 7-mG [1, 3] | effect on PHB adducts (7-phbG, O^6-phbdG, O^2-phbdT) [1, 3] | minimum chemopreventive (effective) dose estimated from DNA adduct reduction [1] | effect on NNK-induced O^6-mG ([1]; isolated kavalactones 1 mg/g of diet Day 1-Day 7) | effect on O^6-mG, dose-response [1, 4] | effect on POB adducts, dose-response [1, 4] | reduction of adenoma multiplicity ([2]; 0.05 mg/g of diet (50 ppm) Day 1-Day 14) | reduction of adenoma incidence ([2]; 0.05 mg/g of diet Day 1-Day 14) [%] | adenoma multiplicity ([2]; 0.05 mg/g of diet Day 1-Day 14) [lung adenoma/mouse] | reduction of adenoma incidence ([2]; 0.5 mg/g of diet Day 1-Day 14) [%] | reduction of adenoma multiplicity ([2]; 0.5 mg/g of diet Day 1-Day 14) [%] | adenoma multiplicity ([2]; 0.5 mg/g of diet Day 1-Day 14) [lung adenoma/mouse] | minimum effective dose [2]
COC1=CC(=O)O[C@@H](CCc2ccc3c(c2)OCO3)C1 [(+)-DHM, (+)-dihydromethysticin] | no effect | comparable to that induced by kava at a dose of 1.25 mg/g of diet | dose-dependently reduced | dose-dependently reduced | 0.01-0.1 mg/g of diet | significantly reduced | preferentially and dose-dependently reduced | weaker effects | 97% and 97.1% | 40 | 0.6±0.5 | 40 | 97.1 | 0.6±0.5 | lower than 0.05 mg/g
COC1=CC(=O)O[C@@H](CCc2ccc3c(c2)OCO3)C1 [DHM, dihydromethysticin] | – | – | – | – | 0.01-0.1 mg/g of diet | – | – | – | – | – | – | – | – | – | lower than 0.05 mg/g
